# Assay results reported in ChEMBL document CHEMBL1156434, “A nonpeptidic agonist of glucagon-like peptide 1 receptors with efficacy in diabetic db/db mice” (Proc Natl Acad Sci U S A, 2007).
# Active and inactive are the calls of the source. The rule behind the calls is not given here.
# Columns and labels:
# [1] = target: T1, Glucagon-like peptide 1 receptor (Rattus norvegicus) (UniProt P32301); experiment: Agonist activity at rat GLP1 receptor expressed in HEK293 cells assessed as luciferase activity; format: functional, cell-based
# T1 sequence (whole entry): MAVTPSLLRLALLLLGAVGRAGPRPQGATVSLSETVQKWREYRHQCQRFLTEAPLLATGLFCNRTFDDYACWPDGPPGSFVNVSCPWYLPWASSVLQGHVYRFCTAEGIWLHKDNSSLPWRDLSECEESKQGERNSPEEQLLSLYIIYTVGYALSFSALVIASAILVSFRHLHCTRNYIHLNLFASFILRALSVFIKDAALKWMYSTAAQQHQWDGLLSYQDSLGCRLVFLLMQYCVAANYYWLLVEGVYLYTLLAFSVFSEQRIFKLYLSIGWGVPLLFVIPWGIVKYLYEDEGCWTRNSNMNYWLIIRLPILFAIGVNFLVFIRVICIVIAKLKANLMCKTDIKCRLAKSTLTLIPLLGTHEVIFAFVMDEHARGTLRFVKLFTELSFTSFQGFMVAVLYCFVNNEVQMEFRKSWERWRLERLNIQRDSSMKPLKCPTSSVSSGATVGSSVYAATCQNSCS
# [2] = target: T1, Glucagon-like peptide 1 receptor (Rattus norvegicus); experiment: (§1) Displacement of [125I]GLP1 from rat GLP1 receptor expressed in HEK293 cells; format: cell-based
# [3] = target: T1, Glucagon-like peptide 1 receptor (Rattus norvegicus); experiment: (§2) Agonist activity at rat GLP1 receptor expressed in HEK293 cells assessed as cAMP release; format: functional, cell-based
# Mus musculus [4] = species: Mus musculus; experiment: Effect on glycemia in C57BL/6-m+/+Leprdb mouse assessed as HbA1c normalization at 1 mg; format: functional, organism-based
# HEK293 = experiment: Toxicity in HEK293 cells upto 300 uM by MTT assay; format: cell-based; conditions: human
# Mus musculus [5] = experiment: Decrease in HbA1c levels in C57BL/6-m+/+Leprdb mouse at 1 mg, ip; format: functional, organism-based
# [6] = Induction of glucose-induced insulin release in Sprague-Dawley rat islets at 10 uM relative to control; format: functional
# Mus musculus [7] = species: Mus musculus; experiment: Decrease in high density lipoprotein in C57BL/6-m+/+Leprdb mouse at 2 mg; format: functional, organism-based
# Mus musculus [8] = experiment: Suppression of food intake in po dosed C57BL/6 mouse after 2 hrs; format: functional
# Mus musculus [9] = experiment: Decrease in food intake in ip dosed C57BL/6-m+/+Leprdb mouse; format: functional; set-up: scale not given: the % may be the effect or the level left
# [10] = target: T2, Glucagon-like peptide 1 receptor (Rattus norvegicus, UniProt P32301); experiment: as §1; format: cell-based
# T2 sequence (P32301 whole entry): T1 sequence (whole entry)
# Mus musculus [11] = species: Mus musculus; experiment: Decrease in fasting insulin in C57BL/6-m+/+Leprdb mouse at 1 mg; format: functional, organism-based
# [12] = target: T1, Glucagon-like peptide 1 receptor (Rattus norvegicus); experiment: Reversal of agonist activity at rat GLP1 receptor expressed in HEK293 cells assessed as luciferase activity at 0.05 uM in presence of exendin; format: functional, cell-based
# [13] = target: T1, Glucagon-like peptide 1 receptor (Rattus norvegicus); experiment: Agonist activity at rat GLP1 receptor expressed in HEK293 cells assessed as luciferase activity upto 10 uM relative to GLP1; format: functional, cell-based
# Mus musculus [14] = species: Mus musculus; experiment: Decrease in total cholesterol in C57BL/6-m+/+Leprdb mouse at 2 mg; format: functional, organism-based
# Mus musculus [15] = species: Mus musculus; experiment: Effect on glycemia in C57BL/6-m+/+Leprdb mouse assessed as fasting glucose normalization at 1 mg; format: functional, organism-based
# [16] = Terminal half life in C57BL/6 mouse at 2 mg, ip; format: ADME, organism-based; conditions: in vivo
# Mus musculus [17] = experiment: Reversal of suppression of food intake in ip dosed C57BL/6 mouse after 12 hrs in presence of exendin; format: functional, organism-based
# Mus musculus [18] = species: Mus musculus; experiment: Decrease in fasting insulin in C57BL/6-m+/+Leprdb mouse at 2 mg; format: functional, organism-based
# Mus musculus [19] = experiment: Decrease in HbA1c levels in C57BL/6-m+/+Leprdb mouse at 2 mg, ip; format: functional, organism-based
# Mus musculus [20] = experiment: Reversal of suppression of food intake in po dosed C57BL/6 mouse after 2 hrs in presence of exendin; format: functional, organism-based
# Mus musculus [21] = experiment: Decrease in HbA1c levels in ip dosed C57BL/6-m+/+Leprdb mouse at 8 mg, ip; format: functional, organism-based
# [22] = target: T2, Glucagon-like peptide 1 receptor; experiment: as §2; format: functional, cell-based
# Mus musculus [23] = species: Mus musculus; experiment: Effect on glycemia in C57BL/6-m+/+Leprdb mouse assessed as fasting glucose normalization at 2 mg; format: functional, organism-based
# [24] = target: Glucagon-like peptide 1 receptor (Homo sapiens) (UniProt P43220); experiment: Activity at human GLP1 receptor expressed in HEK293 cells; format: cell-based
# Mus musculus [25] = species: Mus musculus; experiment: Effect on glycemia in C57BL/6-m+/+Leprdb mouse assessed as HbA1c normalization at 2 mg; format: functional, organism-based
# [26] = target: T1, Glucagon-like peptide 1 receptor (Rattus norvegicus); experiment: Reversal of agonist activity at rat GLP1 receptor expressed in HEK293 cells assessed as luciferase activity at 10 uM in presence of exendin; format: functional, cell-based
# Mus musculus [27] = experiment: Suppression of food intake in ip dosed C57BL/6 mouse after 12 hrs; format: functional
# Mus musculus [28] = species: Mus musculus; experiment: Effect on glucose excursion in C57BL/6-m+/+Leprdb mouse assessed as glucose tolerance normalization at 2 mg; format: functional, organism-based
# Mus musculus [29] = experiment: Suppression of food intake in C57BL/6 mouse at 2 mg, ip after 12 hrs; format: functional
# Mus musculus [30] = species: Mus musculus; experiment: Toxicity in C57BL/6 mouse treated upto 6 weeks; format: organism-based; conditions: in vivo, 1008 h
# [31] = Induction of glucose-induced insulin release in Sprague-Dawley rat islets at 100 uM relative to control; format: functional
# Chain of Glucagon-like peptide 1 receptor (Homo sapiens) (P43220 whole entry): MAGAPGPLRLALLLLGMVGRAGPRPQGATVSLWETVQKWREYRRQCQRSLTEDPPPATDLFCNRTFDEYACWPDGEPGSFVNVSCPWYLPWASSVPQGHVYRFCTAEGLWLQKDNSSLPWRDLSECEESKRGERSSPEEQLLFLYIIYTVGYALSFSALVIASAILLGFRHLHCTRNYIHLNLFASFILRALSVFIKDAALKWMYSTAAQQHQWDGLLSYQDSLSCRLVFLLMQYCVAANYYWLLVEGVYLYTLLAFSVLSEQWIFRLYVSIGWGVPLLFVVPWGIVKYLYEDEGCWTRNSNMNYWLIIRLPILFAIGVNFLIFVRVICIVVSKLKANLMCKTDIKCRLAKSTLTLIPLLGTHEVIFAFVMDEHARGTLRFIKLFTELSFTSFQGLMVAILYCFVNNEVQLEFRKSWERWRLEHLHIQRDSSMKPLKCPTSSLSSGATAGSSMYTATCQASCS
smiles,measurement,setting,value
CCOc1cc(/C=C2\N=C(c3ccc(NC(C)=O)cc3)OC2=O)ccc1OC(=O)c1cccs1,Activity,[1],Active
same,Activity,[2],Active
same,Activity,[3],Active
COc1cc(C2C(NC(=O)c3ccc(NC(=O)OC(C)(C)C)cc3)(C(=O)O)C(c3ccc(OC(=O)c4cccs4)c(OC)c3)C2(NC(=O)c2ccc(NC(=O)OC(C)(C)C)cc2)C(=O)O)ccc1OC(=O)c1cccs1 (stereo not drawn),Activity,Mus musculus [4],Active
same,Activity,HEK293,Non-toxic
same,Activity,Mus musculus [5],Active
same,fold change (FC),[6],4.5
same,Activity,Mus musculus [7],Active
same,ED50,Mus musculus [8],0.53 mg
same,Activity,Mus musculus [9],24.9%
same,Ki,[10],1.47 µM
same,Activity,Mus musculus [11],Active
same,Activity,[12],Active
same,Activity,[13],Active
same,Activity,Mus musculus [14],Active
same,Activity,Mus musculus [15],Active
same,half-life,[16],7.5 h
same,Activity,Mus musculus [17],Active
same,Activity,Mus musculus [18],Active
same,Activity,Mus musculus [19],Active
same,Activity,Mus musculus [20],Active
same,Activity,Mus musculus [21],Active
same,EC50,[22],2.73 µM
same,Activity,Mus musculus [23],Active
same,Activity,[24],inactive
same,Activity,Mus musculus [25],Active
same,Activity,[26],Active
same,ED50,Mus musculus [27],1.57 mg
same,Activity,Mus musculus [28],Active
same,Activity,Mus musculus [29],54%
same,Activity,Mus musculus [30],Non-toxic
COc1cc(C2C(NC(=O)c3ccc(NC(=O)C4CCCC4)cc3)(C(=O)O)C(c3ccc(OC(=O)c4cccs4)c(OC)c3)C2(NC(=O)c2ccc(NC(=O)C3CCCC3)cc2)C(=O)O)ccc1OC(=O)c1cccs1 (stereo not drawn),fold change (FC),[31],2.6
same,Ki,[10],0.287 µM
same,Activity,[12],Active
same,Activity,[13],37%
same,EC50,[22],1.08 µM
same,Activity,[24],inactive
same,Activity,[26],Active
